Tests used:
Plasmopara viticola = assay: whole plant or invertebrate; format: in vivo; settings: foliar, read-out: disease control
Pythium ultimum = Pythium ultimum / liquid culture (seedling damping off); format: cell-based; settings: Globisporangium ultimum; 200 ppm; potato dextrose broth, 24° C., 2-3 days after application; read-out: disease control (inhibition of growth determined photometrically)
[1] = tested on: Glomerella lagenarium (Colletotrichum lagenarium); assay: Glomerella lagenarium (Colletotrichum lagenarium) / liquid culture (anthracnose); format: cell-based; settings: Colletotrichum orbiculare, PDB potato dextrose broth, 24° C., 3-4 days after application, read-out: disease control (inhibition of growth measured photometrically)
Procedure: 11. Glomerella lagenarium (Colletotrichum lagenarium)/Liquid Culture (Anthracnose): Conidia of the fungus from cryogenic storage were directly mixed into nutrient broth (PDB potato dextrose broth). After placing a DMSO solution of test compound into a 96-well microtiter plate at an application rate of 200 ppm, the nutrient broth containing the fungal spores was added. The test plates were incubated at 24° C. and the inhibition of growth was measured photometrically 3-4 days after application.

[2] = tested on: Monographella nivalis (Microdochium nivale); assay: Monographella nivalis (Microdochium nivale) / liquid culture (foot rot cereals); format: cell-based; settings: PDB potato dextrose broth, 24° C., 4-5 days after application, read-out: disease control (inhibition of growth determined photometrically)
[3] = tested on: Mycosphaerella arachidis (Cercospora arachidicola); assay: Mycosphaerella arachidis (Cercospora arachidicola) / liquid culture (early leaf spot); format: cell-based; settings: PDB potato dextrose broth, 24° C., 4-5 days after application, read-out: disease control (inhibition of growth determined photometrically)
Procedure: 12. Mycosphaerella arachidis (Cercospora arachidicola)/Liquid Culture (Early Leaf Spot): Conidia of the fungus from cryogenic storage were directly mixed into nutrient broth (PDB potato dextrose broth). After placing a DMSO solution of test compound into a 96-well microtiter plate at an application rate of 200 ppm, the nutrient broth containing the fungal spores was added. The test plates were incubated at 24° C. and the inhibition of growth was determined photometrically 4-5 days after application.

[4] = tested on: Mycosphaerella graminicola (Septoria tritici); assay: Mycosphaerella graminicola (Septoria tritici) / liquid culture (Septoria blotch); format: cell-based; settings: Zymoseptoria tritici, PDB potato dextrose broth, 24° C., 4-5 days after application, read-out: disease control (inhibition of growth determined photometrically)
Procedure: 13. Mycosphaerella graminicola (Septoria tritici)/Liquid Culture (Septoria Blotch): Conidia of the fungus from cryogenic storage were directly mixed into nutrient broth (PDB potato dextrose broth). After placing a DMSO solution of test compound into a 96-well microtiter plate at an application rate of 200 ppm, the nutrient broth containing the fungal spores was added. The test plates were incubated at 24° C. and the inhibition of growth was determined photometrically 4-5 days after application.

Gaeumannomyces graminis = Gaeumannomyces graminis / liquid culture (take-all of cereals); format: cell-based; settings: PDB potato dextrose broth, 24° C., 4-5 days after application, read-out: disease control (inhibition of growth determined photometrically)
Procedure: 14. Gaeumannomyces graminis/Liquid Culture (Take-all of Cereals): Mycelial fragments of the fungus from cryogenic storage were directly mixed into nutrient broth (PDB potato dextrose broth). After placing a DMSO solution of test compound into a 96-well microtiter plate at an application rate of 200 ppm, the nutrient broth […], containing the fungal spores is added. The test plates were incubated at 24° C. and the inhibition of growth was determined photometrically 4-5 days after application.

[5] = tested on: Thanatephorus cucumeris (Rhizoctonia solani); assay: Thanatephorus cucumeris (Rhizoctonia solani) / liquid culture (foot rot, damping-off); format: cell-based; settings: PDB potato dextrose broth, 24° C., 3-4 days after application, read-out: disease control (inhibition of growth determined photometrically)
Procedure: 17. Thanatephorus cucumeris (Rhizoctonia solani)/Liquid Culture (Foot Rot, Damping-Off): Mycelia fragments of a newly grown liquid culture of the fungus were directly mixed into nutrient broth (PDB potato dextrose broth). After placing a DMSO solution of the test compounds into a 96-well microtiter plate at an application rate of 200 ppm, the nutrient broth containing the fungal material was added. The test plates were incubated at 24° C. and the inhibition of growth was determined photometrically 3-4 days after application.

COC(=O)C(OC(=O)c1cc2c(cc1Cl)COB2O)c1ccccc1 (stereo not shown) [Compound 223]
≥ 80%: pest or weed control at 200 ppm (Plasmopara viticola) | inhibition at 200 ppm (Pythium ultimum) | inhibition at 200 ppm [1] | inhibition at 200 ppm [2]

CC(=O)c1sc(NC(=O)c2cc3c(cc2Cl)COB3O)nc1C [Compound 158]
≥ 80%: inhibition at 200 ppm (Pythium ultimum) | inhibition at 200 ppm [1]

C[Si](C)(C)/C=C/COC(=O)c1ccc2c(c1)B(O)OC2 [Compound 342]
≥ 80%: pest or weed control at 200 ppm (Plasmopara viticola) | inhibition at 200 ppm (Pythium ultimum) | inhibition at 200 ppm [3] | inhibition at 200 ppm [4] | inhibition at 200 ppm (Gaeumannomyces graminis) | inhibition at 200 ppm [2] | inhibition at 200 ppm [5]

Cc1ccccc1NC(=O)c1ccc2c(c1)B(O)OC2 [Compound 280]
≥ 80%: inhibition at 200 ppm (Pythium ultimum) | inhibition at 200 ppm [1]

O=C(OCC(F)F)c1cc2c(cc1F)COB2O [Compound 427]
≥ 80%: inhibition at 200 ppm (Pythium ultimum) | inhibition at 200 ppm [1] | inhibition at 200 ppm [2] | inhibition at 200 ppm [5]

O=C(OC(CF)CF)c1cc2c(cc1Cl)COB2O [Compound 189]
≥ 80%: inhibition at 200 ppm (Pythium ultimum) | inhibition at 200 ppm [1] | inhibition at 200 ppm (Gaeumannomyces graminis) | inhibition at 200 ppm [2]

O=C(OCCC(F)(F)F)c1ccc2c(c1)B(O)OC2 [Compound 369]
≥ 80%: inhibition at 200 ppm (Pythium ultimum) | inhibition at 200 ppm [1] | inhibition at 200 ppm (Gaeumannomyces graminis) | inhibition at 200 ppm [2] | inhibition at 200 ppm [5]

C[Si](C)(C)CCCOC(=O)c1cc2c(cc1F)COB2O [Compound 377]
≥ 80%: inhibition at 200 ppm (Pythium ultimum) | inhibition at 200 ppm [3] | inhibition at 200 ppm [4] | inhibition at 200 ppm (Gaeumannomyces graminis) | inhibition at 200 ppm [2] | inhibition at 200 ppm [5]

O=C(OCCCF)c1cc2c(cc1F)COB2O [Compound 390]
≥ 80%: pest or weed control at 200 ppm (Plasmopara viticola) | inhibition at 200 ppm (Pythium ultimum) | inhibition at 200 ppm [1] | inhibition at 200 ppm (Gaeumannomyces graminis) | inhibition at 200 ppm [2] | inhibition at 200 ppm [5]

COC(=O)C(OC(=O)c1cc2c(cc1F)COB2O)c1ccccc1 (stereo not shown) [Compound 411]
≥ 80%: pest or weed control at 200 ppm (Plasmopara viticola) | inhibition at 200 ppm (Pythium ultimum) | inhibition at 200 ppm [1] | inhibition at 200 ppm [4] | inhibition at 200 ppm (Gaeumannomyces graminis) | inhibition at 200 ppm [2]

O=C(OCCF)c1cc2c(cc1F)COB2O [Compound 423]
≥ 80%: pest or weed control at 200 ppm (Plasmopara viticola) | inhibition at 200 ppm (Pythium ultimum) | inhibition at 200 ppm [3] | inhibition at 200 ppm [4] | inhibition at 200 ppm (Gaeumannomyces graminis) | inhibition at 200 ppm [2] | inhibition at 200 ppm [5]

O=C(OCCCF)c1ccc2c(c1)B(O)OC2 [Compound 330]
≥ 80%: pest or weed control at 200 ppm (Plasmopara viticola) | inhibition at 200 ppm (Pythium ultimum) | inhibition at 200 ppm [3] | inhibition at 200 ppm (Gaeumannomyces graminis) | inhibition at 200 ppm [2] | inhibition at 200 ppm [5]

O=C(OCC1CCSCC1)c1ccc2c(c1)B(O)OC2 [Compound 319]
≥ 80%: inhibition at 200 ppm (Pythium ultimum) | inhibition at 200 ppm [3] | inhibition at 200 ppm [4] | inhibition at 200 ppm [2] | inhibition at 200 ppm [5]

O=C(OCc1ccc(C(F)(F)F)cc1Cl)c1ccc2c(c1)B(O)OC2 [Compound 326]
≥ 80%: inhibition at 200 ppm [1] | inhibition at 200 ppm (Gaeumannomyces graminis) | inhibition at 200 ppm [2]

C#CC(CC)OC(=O)c1ccc2c(c1)B(O)OC2 (stereo not shown) [Compound 327]
≥ 80%: pest or weed control at 200 ppm (Plasmopara viticola) | inhibition at 200 ppm (Pythium ultimum) | inhibition at 200 ppm [1] | inhibition at 200 ppm (Gaeumannomyces graminis) | inhibition at 200 ppm [5]

CCCCSCCOC(=O)c1ccc2c(c1)B(O)OC2 [Compound 324]
≥ 80%: pest or weed control at 200 ppm (Plasmopara viticola) | inhibition at 200 ppm (Pythium ultimum) | inhibition at 200 ppm [3] | inhibition at 200 ppm [4] | inhibition at 200 ppm (Gaeumannomyces graminis) | inhibition at 200 ppm [2] | inhibition at 200 ppm [5]

O=C(OCc1ncc(C(F)(F)F)cc1Cl)c1cc2c(cc1F)COB2O [Compound 409]
≥ 80%: pest or weed control at 200 ppm (Plasmopara viticola) | inhibition at 200 ppm (Pythium ultimum) | inhibition at 200 ppm [1] | inhibition at 200 ppm (Gaeumannomyces graminis) | inhibition at 200 ppm [2] | inhibition at 200 ppm [5]

O=C(OCC1CCCO1)c1ccc2c(c1)B(O)OC2 (stereo not shown) [Compound 337]
≥ 80%: pest or weed control at 200 ppm (Plasmopara viticola) | inhibition at 200 ppm (Pythium ultimum) | inhibition at 200 ppm [3] | inhibition at 200 ppm [2] | inhibition at 200 ppm [5]

Cc1ccccc1NC(=O)c1cc2c(cc1Cl)COB2O [Compound 112]
≥ 80%: inhibition at 200 ppm [1]

O=C(OCc1ccc(-c2ccccc2)cc1)c1cc2c(cc1Cl)COB2O [Compound 199]
≥ 80%: inhibition at 200 ppm [1] | inhibition at 200 ppm [4] | inhibition at 200 ppm (Gaeumannomyces graminis) | inhibition at 200 ppm [2]

O=C(OCc1cccc2ccccc12)c1ccc2c(c1)B(O)OC2 [Compound 333]
≥ 80%: inhibition at 200 ppm (Pythium ultimum) | inhibition at 200 ppm [3] | inhibition at 200 ppm [4] | inhibition at 200 ppm [2]

O=C(OCc1ccco1)c1cc2c(cc1F)COB2O [Compound 398]
≥ 80%: pest or weed control at 200 ppm (Plasmopara viticola) | inhibition at 200 ppm (Pythium ultimum) | inhibition at 200 ppm [3] | inhibition at 200 ppm [2] | inhibition at 200 ppm [5]

COCCOC(=O)c1cc2c(cc1Cl)COB2O [Compound 224]
≥ 80%: inhibition at 200 ppm (Pythium ultimum) | inhibition at 200 ppm [1] | inhibition at 200 ppm (Gaeumannomyces graminis) | inhibition at 200 ppm [2]

O=C(OCc1ncc(C(F)(F)F)cc1Cl)c1cc2c(cc1Cl)COB2O [Compound 221]
≥ 80%: inhibition at 200 ppm (Pythium ultimum) | inhibition at 200 ppm [1] | inhibition at 200 ppm (Gaeumannomyces graminis) | inhibition at 200 ppm [2]

CC(F)COC(=O)c1cc2c(cc1Cl)COB2O (stereo not shown) [Compound 209]
≥ 80%: inhibition at 200 ppm (Pythium ultimum) | inhibition at 200 ppm [1] | inhibition at 200 ppm (Gaeumannomyces graminis) | inhibition at 200 ppm [2] | inhibition at 200 ppm [5]

C=CC(=O)OCC(C)OC(=O)c1cc2c(cc1Cl)COB2O (stereo not shown) [Compound 191]
≥ 80%: inhibition at 200 ppm [1] | inhibition at 200 ppm [4] | inhibition at 200 ppm (Gaeumannomyces graminis) | inhibition at 200 ppm [2]

O=C(OC1CCOCC1)c1cc2c(cc1Cl)COB2O [Compound 237]
≥ 80%: inhibition at 200 ppm (Pythium ultimum) | inhibition at 200 ppm [1] | inhibition at 200 ppm [2]

— patent publication US20170000133A1, “BENZOXABOROLE FUNGICIDES” (SYNGENTA PARTICIPATIONS AG, priority 2013, published 2017)
